Read-outs that look alike come from different tables or passages of the source.
Assays:
[1] = tested on: MDA-MB-231; experiment: Antiproliferative assay (resazurin, 72 h); format: cell-based, human; settings: MDA-MB-231, 72 h incubation, read-out: Growth Inhibition IC50 MDA-MB-231
Experimental: (§1) Cells were seeded in 96-well plates (5×10^3 cells/well) containing 50 μL growth medium for 24 hours. After medium removal, 100 μL fresh medium containing individual analog compound at different concentrations was added to each well and incubated at 37° C. for 72 h. […] After 72 h of incubation, 20 μL of resazurin was added for 2 h before recording fluorescence at 560 nm (excitation) and 590 nm (emission) using a Victor microtiter plate fluorimeter (Perkin-Elmer, USA).

[2] = tested on: A549; experiment: Antiproliferative assay (resazurin, 72 h); format: cell-based, human; settings: A549, 72 h incubation, read-out: Growth Inhibition IC50 A549
Experimental: as §1

[3] = tested on: HeLa; experiment: Antiproliferative assay (resazurin, 72 h); format: cell-based, human; settings: 72 h incubation, read-out: Growth Inhibition IC50 HeLa
Experimental: as §1

[4] = tested on: bovine brain tubulin; experiment: Tubulin polymerization assay; settings: compared to vehicle (DMSO)
Experimental: It is based on the principal that light is scattered by microtubules to an extent that is proportional to the concentration of the microtubule polymer. Compounds that interact with tubulin will alter the polymerization of tubulin, and this can be detected using a spectrophotometer. The absorbance at 340 nm at 37° C. is monitored. The experimental procedure of the assay was performed as described in version 8.2 of the tubulin polymerization assay kit manual. Varying concentrations of compounds were preincubated with 10 μM bovine brain tubulin in glutamate buffer at 30° C. and then cooled to 0° C. After the addition of 0.4 mM GTP, the mixtures were transferred to 0° C. cuvettes in a recording spectrophotometer and warmed to 30° C. Tubulin assembly was followed turbidimetrically at 350 nm.
The reaction was initiated by the addition of tubulin to a final concentration of 3.0 mg/mL

COc1ccc(-c2cccc(-c3cc(OC)c(OC)c(OC)c3)n2)c(OC)c1 [Compound 4g, 2-(2,4-Dimethoxyphenyl)-6-(3,4,5-trimethoxyphenyl)pyridine]
melting point: 115 to 117 °C
IC50 ([1]; Homo sapiens, MDA-MB-231, 72 h): > 100 µM
IC50 ([2]; Homo sapiens, A549, 72 h): 0.69 µM
IC50 ([3]; Homo sapiens, 72 h): 4.43 µM

COc1ccc(-c2cccc(-c3ccc(OC)cc3OC)n2)c(OC)c1 [Compound 3c, 2,6-Bis(2,4-dimethoxyphenyl)pyridine]
melting point: 113 to 114 °C
IC50 ([1]; Homo sapiens, MDA-MB-231, 72 h): 0.075 µM
IC50 ([2]; Homo sapiens, A549, 72 h): 0.079 µM
IC50 ([3]; Homo sapiens, 72 h): 0.011 µM

COc1ccc(-c2cccc(-c3cc(OC)c(OC)c(OC)c3)n2)cc1OC [Compound 4c, 2-(3,4-Dimethoxyphenyl)-6-(3,4,5-trimethoxyphenyl)pyridine]
melting point: 107 to 108 °C
IC50 ([1]; Homo sapiens, MDA-MB-231, 72 h): 2.49 µM
IC50 ([2]; Homo sapiens, A549, 72 h): > 50 µM
IC50 ([3]; Homo sapiens, 72 h): 0.026 µM

COc1ccc(-c2cccc(-c3cc(OC)c(OC)c(OC)c3)n2)cc1 [Compound 4f, 2-(4-Methoxyphenyl)-6-(3,4,5-trimethoxyphenyl)pyridine]
melting point: 112 to 114 °C
IC50 ([1]; Homo sapiens, MDA-MB-231, 72 h): > 25 µM
IC50 ([2]; Homo sapiens, A549, 72 h): > 50 µM
IC50 ([3]; Homo sapiens, 72 h): > 50 µM

COc1ccc(-c2cccc(Br)n2)cc1 [Compound 2d, 2-Bromo-6-(4-methoxyphenyl)pyridine]
melting point: 99 to 100 °C
IC50 ([1]; Homo sapiens, MDA-MB-231, 72 h): 10 µM
IC50 ([2]; Homo sapiens, A549, 72 h): 2 µM
IC50 ([3]; Homo sapiens, 72 h): 2 µM

COc1ccc(-c2ccc(-c3ccc(OC)cc3OC)nc2)c(OC)c1 [Compound 3g, 2,5-Bis(2,4-dimethoxyphenyl)pyridine]
melting point: 124 to 125 °C
IC50 ([1]; Homo sapiens, MDA-MB-231, 72 h): > 100 µM
IC50 ([2]; Homo sapiens, A549, 72 h): > 100 µM
IC50 ([3]; Homo sapiens, 72 h): > 50 µM

COc1ccc(-c2cccc(-c3ccccc3OC)n2)c(OC)c1 [Compound 4r, 2-(2,4-Dimethoxyphenyl)-6-(2-methoxyphenyl)pyridine]
IC50 ([1]; Homo sapiens, MDA-MB-231, 72 h): > 25 µM
IC50 ([2]; Homo sapiens, A549, 72 h): > 50 µM
IC50 ([3]; Homo sapiens, 72 h): > 25 µM

COc1cc(-c2cccc(Br)n2)cc(OC)c1OC [Compound 2a, 2-Bromo-6-(3,4,5-trimethoxyphenyl)pyridine]
melting point: 100 to 102 °C
IC50 ([1]; Homo sapiens, MDA-MB-231, 72 h): 6 µM
IC50 ([2]; Homo sapiens, A549, 72 h): 9 µM
IC50 ([3]; Homo sapiens, 72 h): 12 µM

COc1cc(-c2cccc(-c3ccc(O)cc3)n2)cc(OC)c1OC [Compound 4a, 4-(6-(3,4,5-Trimethoxyphenyl)pyridin-2-yl)phenol]
melting point: 92 to 94 °C (dec.)
IC50 ([1]; Homo sapiens, MDA-MB-231, 72 h): 10 µM
IC50 ([2]; Homo sapiens, A549, 72 h): > 25 µM
IC50 ([3]; Homo sapiens, 72 h): 8 µM

COc1ccc(-c2cccc(-c3ccc(OC)c(OC)c3)n2)cc1OC [Compound 3b, 2,6-Bis(3,4-dimethoxyphenyl)pyridine]
melting point: 140 to 141 °C
IC50 ([1]; Homo sapiens, MDA-MB-231, 72 h): > 50 µM
IC50 ([2]; Homo sapiens, A549, 72 h): > 50 µM
IC50 ([3]; Homo sapiens, 72 h): > 25 µM

COc1cc(-c2ccc(Br)cn2)cc(OC)c1OC [Compound 2e, 5-Bromo-2-(3,4,5-trimethoxyphenyl)pyridine]
melting point: 49 to 50 °C
IC50 ([1]; Homo sapiens, MDA-MB-231, 72 h): 12 µM
IC50 ([2]; Homo sapiens, A549, 72 h): > 25 µM
IC50 ([3]; Homo sapiens, 72 h): 14 µM

COc1cc(-c2ccc(-c3cc(OC)c(OC)c(OC)c3)nc2)cc(OC)c1OC [Compound 3e, 2,5-Bis(3,4,5-trimethoxyphenyl)pyridine]
IC50 ([1]; Homo sapiens, MDA-MB-231, 72 h): 11 µM
IC50 ([2]; Homo sapiens, A549, 72 h): > 100 µM
IC50 ([3]; Homo sapiens, 72 h): 2.68 µM

COc1ccc(-c2ccnc(-c3ccc(OC)cc3OC)c2)c(OC)c1 [Compound 3h, 2,4-Bis(2,4-dimethoxyphenyl)pyridine]
melting point: 95 to 97 °C
IC50 ([1]; Homo sapiens, MDA-MB-231, 72 h): > 50 µM
IC50 ([2]; Homo sapiens, A549, 72 h): > 50 µM
IC50 ([3]; Homo sapiens, 72 h): > 25 µM

COc1ccc(-c2cccc(-c3ccc(O)cc3)n2)cc1 [Compound 4j, 4-(6-(4-Methoxyphenyl)pyridine-2-yl)phenol]
melting point: 133 to 134 °C
IC50 ([1]; Homo sapiens, MDA-MB-231, 72 h): > 25 µM
IC50 ([2]; Homo sapiens, A549, 72 h): > 25 µM
IC50 ([3]; Homo sapiens, 72 h): > 50 µM

COc1ccc(-c2cccc(-c3c(OC)cccc3OC)n2)c(OC)c1 [Compound 4o, 2-(2,4-Dimethoxyphenyl)-6-(2,6-dimethoxyphenyl)pyridine]
melting point: 155 to 156 °C
IC50 ([1]; Homo sapiens, MDA-MB-231, 72 h): > 100 µM
IC50 ([2]; Homo sapiens, A549, 72 h): > 100 µM
IC50 ([3]; Homo sapiens, 72 h): > 50 µM

COc1cc(OC)cc(-c2cccc(-c3ccc(OC)cc3OC)n2)c1 [Compound 4l, 2-(2,4-Dimethoxyphenyl)-6-(3,5-dimethoxyphenyl)pyridine]
IC50 ([1]; Homo sapiens, MDA-MB-231, 72 h): > 25 µM
IC50 ([2]; Homo sapiens, A549, 72 h): > 25 µM
IC50 ([3]; Homo sapiens, 72 h): > 50 µM

COc1ccc(-c2cccc(Br)n2)cc1OC [Compound 2b, 2-Bromo-6-(3,4-dimethoxyphenyl)pyridine]
IC50 ([1]; Homo sapiens, MDA-MB-231, 72 h): > 25 µM
IC50 ([2]; Homo sapiens, A549, 72 h): > 25 µM
IC50 ([3]; Homo sapiens, 72 h): > 50 µM

COc1ccc(-c2ccc(-c3cc(OC)c(OC)c(OC)c3)nc2)cc1OC [Compound 4i, 5-(3,4-Dimethoxyphenyl)-2-(3,4,5-trimethoxyphenyl)pyridine]
melting point: 131 to 132 °C
IC50 ([1]; Homo sapiens, MDA-MB-231, 72 h): > 50 µM
IC50 ([2]; Homo sapiens, A549, 72 h): > 50 µM
IC50 ([3]; Homo sapiens, 72 h): > 25 µM

COc1ccc(-c2cccc(-c3ccc(O)cc3)n2)cc1OC [Compound 4b, 4-(6-(3,4-Dimethoxyphenyl)pyridin-2-yl)phenol]
melting point: 70 to 72 °C (dec.)
IC50 ([1]; Homo sapiens, MDA-MB-231, 72 h): > 50 µM
IC50 ([2]; Homo sapiens, A549, 72 h): > 100 µM
IC50 ([3]; Homo sapiens, 72 h): 0.86 µM

COc1cc(-c2cccc(-c3cc(OC)c(OC)c(OC)c3)n2)cc(OC)c1OC [Compound 3a, 2,6-Bis(3,4,5-trimethoxyphenyl)pyridine]
IC50 ([1]; Homo sapiens, MDA-MB-231, 72 h): 11 µM
IC50 ([2]; Homo sapiens, A549, 72 h): > 50 µM
IC50 ([3]; Homo sapiens, 72 h): 1 µM

COc1ccc(-c2cccc(-c3ccc(O)cc3)n2)c(OC)c1 [Compound 4k, 4-(6-(2,4-Dimethoxyphenyl)pyridine-2-yl)phenol]
melting point: 112 to 114 °C (dec.)
IC50 ([1]; Homo sapiens, MDA-MB-231, 72 h): 17.2 µM
IC50 ([2]; Homo sapiens, A549, 72 h): 4.22 µM
IC50 ([3]; Homo sapiens, 72 h): > 100 µM

COc1ccc(-c2cccc(Br)n2)c(OC)c1 [Compound 2c, 2-Bromo-6-(2,4-dimethoxyphenyl)pyridine]
IC50 ([1]; Homo sapiens, MDA-MB-231, 72 h): > 100 µM
IC50 ([2]; Homo sapiens, A549, 72 h): > 50 µM
IC50 ([3]; Homo sapiens, 72 h): > 50 µM

COc1ccc(-c2cccc(-c3cc(OC)c(OC)c(OC)c3)n2)cc1O [Compound 4t, 2-Methoxy-5-(6-(3,4,5-trimethoxyphenyl)pyridine-2-yl)phenol]
melting point: 129 to 130 °C
IC50 ([1]; Homo sapiens, MDA-MB-231, 72 h): 0.069 µM
IC50 ([2]; Homo sapiens, A549, 72 h): 2.64 µM
IC50 ([3]; Homo sapiens, 72 h): 0.0047 µM
Inhibition of tubulin polymerization ([4]; compound at 1 μM): failed to inhibit tubulin polymerization
Inhibition of tubulin polymerization ([4]; compound at 10 μM): 32%

COc1ccc(-c2cccc(-c3cccc(OC)c3OC)n2)c(OC)c1 [Compound 4n, 2-(2,3-Dimethoxyphenyl)-6-(2,4-dimethoxyphenyl)pyridine]
melting point: 79 to 80 °C
IC50 ([1]; Homo sapiens, MDA-MB-231, 72 h): > 50 µM
IC50 ([2]; Homo sapiens, A549, 72 h): > 51 µM
IC50 ([3]; Homo sapiens, 72 h): > 52 µM

COc1ccc(-c2cccc(-c3c(OC)cc(OC)cc3OC)n2)c(OC)c1 [Compound 4q, 2-(2,4-Dimethoxyphenyl)-6-(2,4,6-trimethoxyphenyl)pyridine]
melting point: 144 to 145 °C
IC50 ([1]; Homo sapiens, MDA-MB-231, 72 h): > 50 µM
IC50 ([2]; Homo sapiens, A549, 72 h): > 50 µM
IC50 ([3]; Homo sapiens, 72 h): > 25 µM

COc1ccc(-c2cccc(-c3ccc(OC)cc3)n2)cc1 [Compound 3d, 2,6-Bis(4-methoxyphenyl)pyridine]
melting point: 156 to 158 °C
IC50 ([1]; Homo sapiens, MDA-MB-231, 72 h): 9 µM
IC50 ([2]; Homo sapiens, A549, 72 h): > 100 µM
IC50 ([3]; Homo sapiens, 72 h): 2 µM

COc1cccc(-c2cccc(-c3ccc(OC)cc3OC)n2)c1 [Compound 4p, 2-(2,4-Dimethoxyphenyl)-6-(3-methoxyphenyl)pyridine]
IC50 ([1]; Homo sapiens, MDA-MB-231, 72 h): 9.02 µM
IC50 ([2]; Homo sapiens, A549, 72 h): 0.56 µM
IC50 ([3]; Homo sapiens, 72 h): 0.067 µM

COc1ccc(-c2cccc(-c3ccc(OC)c(OC)c3)n2)c(OC)c1 [Compound 4e, 2-(2,4-Dimethoxyphenyl)-6-(3,4-dimethoxyphenyl)pyridine]
melting point: 100 to 101 °C
IC50 ([1]; Homo sapiens, MDA-MB-231, 72 h): 13 µM
IC50 ([2]; Homo sapiens, A549, 72 h): > 25 µM
IC50 ([3]; Homo sapiens, 72 h): > 50 µM

COc1ccc(-c2cccc(-c3ccc(OC)c(OC)c3)n2)cc1 [Compound 4d, 2-(3,4-Dimethoxyphenyl)-6-(4-methoxyphenyl)pyridine]
IC50 ([1]; Homo sapiens, MDA-MB-231, 72 h): > 25 µM
IC50 ([2]; Homo sapiens, A549, 72 h): > 25 µM
IC50 ([3]; Homo sapiens, 72 h): > 25 µM

COc1cc(-c2ccnc(-c3cc(OC)c(OC)c(OC)c3)c2)cc(OC)c1OC [Compound 3f, 2,4-Bis(3,4,5-trimethoxyphenyl)pyridine]
IC50 ([1]; Homo sapiens): 2.63 µM
IC50 ([2]; Homo sapiens): 7.86 µM
IC50 ([3]; Homo sapiens): 0.79 µM

COc1ccc(-c2cccc(-c3cc(OC)ccc3OC)n2)c(OC)c1 [Compound 4m, 2-(2,4-Dimethoxyphenyl)-6-(2,5-dimethoxyphenyl)pyridine]
IC50 ([1]; Homo sapiens, MDA-MB-231, 72 h): 0.034 µM
IC50 ([2]; Homo sapiens, A549, 72 h): 0.33 µM
IC50 ([3]; Homo sapiens, 72 h): 0.034 µM

COc1ccc(-c2cccc(-c3ccc(OC)c(O)c3)n2)c(OC)c1 [Compound 5, 2-(2,4-Dimethoxyphenyl)-6-(3-hydroxy-4-methoxyphenyl) pyridin-1-ium chloride]
IC50 [1]: 0.0054 µM
IC50 [2]: 0.042 µM
IC50 [3]: 0.0026 µM

COc1ccc(-c2ccc(Br)cn2)c(OC)c1 [Compound 2f, 5-Bromo-2-(2,4-dimethoxyphenyl)pyridine]
IC50 ([1]; Homo sapiens, MDA-MB-231, 72 h): > 100 µM
IC50 ([2]; Homo sapiens, A549, 72 h): > 100 µM
IC50 ([3]; Homo sapiens, 72 h): > 25 µM

From patent US10017475B2, “Anti-vasculature and anti-tubulin combretastatin analogs for treatment of cancer” (XAVIER UNIVERSITY OF LOUISIANA, priority 2014, dated 2018)
